Each compound was assayed on Porcine Smooth Muscle Cell (assay: Effects of Compounds on Cell Proliferation Using 3H Thymidine Incorporation). Details: serum/growth factor stimulated cells, 24-36 h incubation, read-out: Porcine Smooth Muscle Cell Antiproliferation IC50.
Assay type: cell-based
Protocol: Effects of Compounds on Cell Proliferation Using ^3H Thymidine Incorporation
Human and porcine smooth muscle cells were tested in early passage (generally passage 3-7) at sub-confluent conditions. Cultures were grown in 16 mm (24 well) multi-well culture dishes in medium 199 supplemented with 10% fetal bovine serum and 2% antibiotic/antimycotic. At sub-confluence, the cells were placed in a defined serum free medium (AIM-V; Gibco) for 24-48 h prior to initiating the experimental protocol.
Compounds were added to each well at 50 fold dilution (20 μL/well) and the plates were incubated for 24-36 h at 37° C. in 5% CO2. Compounds were initially dissolved in 50% ethanol and serially diluted into media. Compounds were routinely evaluated at concentrations from 1 to 100 μM. As a control, grade II porcine intestinal mucosal heparin (sodium salt) was routinely evaluated in all cell preparations at concentrations from 0.1 to 100 μg/mL.
At the completion of the test procedure, plates were placed on ice, washed three times with ice cold phosphate buffered saline (PBS) and incubated in ice cold 10% trichloroacetic acid (TCA) got 30 min to remove acid soluble proteins. Solution was transferred to scintillation vials containing 0.4 N HCl (500 μL/vial to neutralize NaOH) and each well was rinsed two times with water (500 μL) for a total volume of 2 mL/vial.
Data was obtained, in triplicate, for both control and experimental samples. Control (100%) data was obtained from maximally stimulated cells, as the result of growth factor or serum stimulation. Experimental data was obtained from cells maximally stimulated with growth factor or serum and treated with compound. Data are expressed as an IC50 or percent inhibition in Table I below.
`CC(=O)OC1C(OC2C(COC(=O)c3ccccc3)OC(OCc3ccc(Cl)c([N+](=O)[O-])c3)C(OC(C)=O)C2OC(C)=O)OC2COC(c3ccccc3)OC2C1OC(C)=O` [Example 31, (R)-(4-Chloro-3-nitrophenyl)methyl-2,3-di-O-acetyl-6-O-benzoyl-4-O-[2,3-di-O-acetyl-4,6-O-(phenylmethylene)-α-D-glucopyranosyl]-β-D-glucopyranoside] gave an IC50 of 0.38 µM. With `CC(=O)OC1C(OC2C(COC(=O)c3cccnc3)OC(OCc3ccc(Cl)c([N+](=O)[O-])c3)C(OC(C)=O)C2OC(C)=O)OC2COC(c3ccccc3)OC2C1OC(C)=O` [Example 33, (R)-(4-Chloro-3-nitrophenyl)methyl 4-[2,3-di-O-acetyl-4,6-O-(phenylmethylene)-α-D-glucopyranosyl]-β-D-glucopyranoside 2,3-diacetate 6-(3-pyridinecarboxylate)] the IC50 was 0.312 µM. Compound `CC(=O)Nc1cc(COC2OC(COC(=O)c3ccc(Cl)c([N+](=O)[O-])c3)C(OC3OC4COC(c5ccccc5)OC4C(O)C3O)C(O)C2O)ccc1Cl` [Example 38, (R)-N-[2-Chloro-5-[[[6-O-(4-chloro-3-nitrobenzoyl)-4-O-[4,6O-(phenylmethylene)-α-D-glucopyranosyl]-β-D-glucopyranosyl]oxy]methyl]phenyl]acetamide] has an IC50 of 0.187 µM. Compound `CC(=O)Nc1cc(COC2OC(COC(=O)c3ccc(Cl)c([N+](=O)[O-])c3)C(OC3OC4COC(c5ccccc5)OC4C(O)C3OC(C)=O)C(OC(C)=O)C2OC(C)=O)ccc1Cl` [Example 39, N-{5-[(2,2′,3,-Tri-O-Acetyl-6-O-(4-chloro-3-nitrobenzoyl)-4′,6′-O-(benzylidene)-β-D-maltosyl)-oxymethyl]-2-chloro-phenyl)-acetamide] has an IC50 of 2.53 µM. In the case of `CC(=O)Nc1cc(COC2OC(COC(=O)c3ccc(C#N)cc3)C(OC3OC4COC(c5ccccc5)OC4C(O)C3O)C(O)C2O)ccc1Cl` [Example 40, (R)-N-[2-Chloro-5-[[[6-O-(4-cyanobenzoyl)-4-O-[4,6O-(phenylmethylene)-α-D-glucopyranosyl]-β-D-glucopyranosyl]oxy]methyl]phenyl]acetamide], the IC50 is reported as 0.092 µM. `CC(=O)Nc1cc(COC2OC(COC(=O)c3ccc([N+](=O)[O-])cc3)C(OC3OC4COC(c5ccccc5)OC4C(O)C3O)C(O)C2O)ccc1Cl` [Example 41, (R)-N-[2-Chloro-5-[[[6-O-(4-nitrobenzoyl)-4-O-[4,6O-(phenylmethylene)-α-D-glucopyranosyl]-β-D-glucopyranosyl]oxy]methyl]phenyl]acetamide] showed an IC50 of 0.273 µM. Work on `CC(=O)Nc1cc(COC2OC(COC(=O)c3cccc(C(F)(F)F)c3)C(OC3OC4COC(c5ccccc5)OC4C(O)C3O)C(O)C2O)ccc1Cl` [Example 42, (R)-N-[2-Chloro-5-[[[6-O-(3-trifluoromethylbenzoyl)-4-O-[4,6O-(phenyl-methylene)-α-D-glucopyranosyl]-β-D-glucopyranosyl]oxy]methyl]phenyl]acetamide] yielded an IC50 of 0.027 µM. Work on `CC(=O)Nc1cc(COC2OC(COC(=O)c3ccccc3I)C(OC3OC4COC(c5ccccc5)OC4C(O)C3O)C(O)C2O)ccc1Cl` [Example 43, N-{5-[(4′,6′-O-Benzylidene-6-O-(2-iodo)-benzoyl-β-D-maltosyl)-oxy-methyl]-2-chloro-phenyl)-acetamide] yielded an IC50 of 0.008 µM. `CC(=O)Nc1cc(COC2OC(COC(=O)c3cccc(I)c3)C(OC3OC4COC(c5ccccc5)OC4C(O)C3O)C(O)C2O)ccc1Cl` [Example 44, N-{5-[(4′,6′-O-Benzylidene-6-O-(3-iodo)-benzoyl-β-D-maltosyl)-oxy-methyl]-2-chloro-phenyl}-acetamide] showed an IC50 of 0.062 µM. `CC(=O)Nc1cc(COC2OC(COC(=O)c3ccc(I)cc3)C(OC3OC4COC(c5ccccc5)OC4C(O)C3O)C(O)C2O)ccc1Cl` [Example 45, N-{5-[(4′,6′-O-Benzylidene-6-(4-iodo-benzoyl)-oxy-β-D-maltosyl)-oxy-methyl]-2-chloro-phenyl}-acetamide] gave an IC50 of 6.44 µM.

— patent US6340670B1, “Acetal benzylmaltosides as inhibitors of smooth muscle cell proliferation” (American Home Products Corporation, priority 1998, dated 2002)
